These are literature values, as cited in patent US20140234433A1, “Topical Composition for Stimulating Epidermis and Dermis Layers of the Skin” (priority 2013, published 2014).

The data set has as its system facial skin.

On to `CC1=C(/C=C/C(C)=C/C=C/C(C)=C/C(=O)O)C(C)(C)CCC1` [tretinoin], for which the histological characteristics entry (0.001% dosage) is “same histological characteristics as the inactive base material”. Further, under “0.01% and 0.05%”, the histological response result is “increased response with an increase in tretinoin concentrations”. In addition, under “24 weeks”, the epidermal thickness result is recorded as “increase”, the “findings in the dermis” value is “no positive findings”, the melanocytes entry is reported as “decrease” and the stratum corneum entry is on record as “stratum corneum compactness”. Moreover, the granular layer thickness result (24 weeks, 1 layer to 2-3 layers) is reported as “increase”. Besides, the dermal changes entry (48 weeks of treatment) is “limited”. For the same compound, the “subjects showing erythema, scaling and peeling, and reporting stinging” value (average of the studies) is “approximately 80%”. Besides, where the note is “continued use up to 4 years”, the “dermal findings on continued use” value was “decrease in elastin and perivascular inflammation”.
